ChEMBL document CHEMBL2074496, “Altered drug disposition of the platelet activating factor antagonist apafant in mdr1a knockout mice” (Eur J Pharm Sci, 2002)

What was measured:
[1] = target: ATP-dependent translocase ABCB1 (Homo sapiens, UniProt P08183); assay: TP_TRANSPORTER: transepithelial transport (basal to apical) in Caco-2 cells; format: functional, cell-based
[2] = target: ATP-dependent translocase ABCB1 (Mus musculus, UniProt P21447); assay: TP_TRANSPORTER: increase in brain concentration in mdr1a(-/-) mouse; format: functional, organism-based; details: in vivo
Chain of ATP-dependent translocase ABCB1 (Mus musculus, UniProt P21447) (P21447 whole entry): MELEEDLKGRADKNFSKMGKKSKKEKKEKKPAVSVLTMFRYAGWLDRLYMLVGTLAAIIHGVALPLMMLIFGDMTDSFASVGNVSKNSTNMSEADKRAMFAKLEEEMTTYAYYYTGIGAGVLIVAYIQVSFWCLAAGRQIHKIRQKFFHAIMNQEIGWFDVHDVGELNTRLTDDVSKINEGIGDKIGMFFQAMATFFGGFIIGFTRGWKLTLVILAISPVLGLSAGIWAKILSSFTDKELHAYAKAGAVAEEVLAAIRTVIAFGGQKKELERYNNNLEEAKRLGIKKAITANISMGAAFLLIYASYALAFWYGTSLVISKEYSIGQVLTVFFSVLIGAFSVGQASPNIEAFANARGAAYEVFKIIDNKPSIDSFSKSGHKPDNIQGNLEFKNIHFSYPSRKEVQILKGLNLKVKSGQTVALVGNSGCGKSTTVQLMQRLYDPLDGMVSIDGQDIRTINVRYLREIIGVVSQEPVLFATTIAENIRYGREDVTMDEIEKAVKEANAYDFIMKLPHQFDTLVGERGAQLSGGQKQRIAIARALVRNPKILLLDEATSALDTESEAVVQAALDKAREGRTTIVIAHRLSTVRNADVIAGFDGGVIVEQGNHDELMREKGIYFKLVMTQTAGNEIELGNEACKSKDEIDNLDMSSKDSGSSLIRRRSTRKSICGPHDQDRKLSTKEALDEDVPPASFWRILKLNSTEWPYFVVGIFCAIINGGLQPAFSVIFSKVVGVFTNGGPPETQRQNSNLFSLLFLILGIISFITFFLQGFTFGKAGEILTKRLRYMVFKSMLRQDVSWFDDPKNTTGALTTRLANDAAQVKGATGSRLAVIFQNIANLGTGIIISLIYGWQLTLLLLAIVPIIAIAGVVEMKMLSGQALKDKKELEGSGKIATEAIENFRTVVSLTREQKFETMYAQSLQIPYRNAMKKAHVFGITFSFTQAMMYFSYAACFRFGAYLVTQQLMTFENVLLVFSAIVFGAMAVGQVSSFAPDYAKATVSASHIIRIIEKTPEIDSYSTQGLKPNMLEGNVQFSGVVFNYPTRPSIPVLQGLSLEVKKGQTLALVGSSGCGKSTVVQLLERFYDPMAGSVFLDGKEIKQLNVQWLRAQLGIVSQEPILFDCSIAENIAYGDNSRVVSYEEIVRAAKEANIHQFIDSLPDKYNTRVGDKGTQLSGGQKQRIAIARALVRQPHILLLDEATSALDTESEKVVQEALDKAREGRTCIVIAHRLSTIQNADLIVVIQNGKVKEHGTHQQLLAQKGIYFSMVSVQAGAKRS

Chain of ATP-dependent translocase ABCB1 (Homo sapiens, UniProt P08183) (P08183 whole entry): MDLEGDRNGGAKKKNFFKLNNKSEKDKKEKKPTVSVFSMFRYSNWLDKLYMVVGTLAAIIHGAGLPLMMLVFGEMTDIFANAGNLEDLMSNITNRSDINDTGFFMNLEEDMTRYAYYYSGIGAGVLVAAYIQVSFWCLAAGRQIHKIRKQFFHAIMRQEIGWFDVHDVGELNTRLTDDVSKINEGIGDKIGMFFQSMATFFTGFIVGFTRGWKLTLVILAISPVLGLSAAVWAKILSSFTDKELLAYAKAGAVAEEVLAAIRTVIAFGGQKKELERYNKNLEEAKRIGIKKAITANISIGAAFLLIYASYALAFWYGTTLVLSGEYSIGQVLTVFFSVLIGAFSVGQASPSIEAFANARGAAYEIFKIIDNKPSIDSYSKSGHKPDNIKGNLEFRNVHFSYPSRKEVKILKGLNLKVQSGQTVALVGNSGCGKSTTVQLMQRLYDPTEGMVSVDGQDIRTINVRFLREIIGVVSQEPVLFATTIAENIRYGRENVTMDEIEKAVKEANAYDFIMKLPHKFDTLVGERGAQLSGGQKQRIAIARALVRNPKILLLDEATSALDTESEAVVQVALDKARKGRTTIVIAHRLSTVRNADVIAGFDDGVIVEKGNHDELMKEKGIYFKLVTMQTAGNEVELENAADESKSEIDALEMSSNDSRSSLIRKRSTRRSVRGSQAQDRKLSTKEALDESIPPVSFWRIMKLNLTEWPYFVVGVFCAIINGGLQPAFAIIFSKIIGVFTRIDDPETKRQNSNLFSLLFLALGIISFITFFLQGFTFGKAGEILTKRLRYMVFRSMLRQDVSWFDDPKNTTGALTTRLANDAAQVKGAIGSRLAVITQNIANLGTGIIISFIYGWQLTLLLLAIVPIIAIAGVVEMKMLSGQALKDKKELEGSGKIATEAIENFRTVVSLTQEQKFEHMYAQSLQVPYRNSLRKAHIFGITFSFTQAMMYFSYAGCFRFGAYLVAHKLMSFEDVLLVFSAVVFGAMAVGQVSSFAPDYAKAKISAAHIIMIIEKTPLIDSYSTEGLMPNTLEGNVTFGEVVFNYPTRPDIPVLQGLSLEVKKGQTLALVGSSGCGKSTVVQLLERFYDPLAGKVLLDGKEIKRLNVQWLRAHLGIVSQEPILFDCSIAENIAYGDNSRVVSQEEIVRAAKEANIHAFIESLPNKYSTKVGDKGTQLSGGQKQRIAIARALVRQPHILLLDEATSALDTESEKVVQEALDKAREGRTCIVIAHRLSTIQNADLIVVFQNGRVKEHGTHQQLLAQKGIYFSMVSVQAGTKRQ

Structure (SMILES): Cc1nnc2n1-c1sc(CCC(=O)N3CCOCC3)cc1C(c1ccccc1Cl)=NC2 [APAFANT]
- Activity [1]: substrate [+]
- Activity [2]: substrate [+]
